The text below walks through data of US20250282819A1, “MITOCHONDRIA-[…] PEPTIDE THAT CAN BE […] DELIVERED AT NANOMOLAR CONCENTRATION, AND USE THEREOF” (CAMP THERAPEUTICS INC., priority 2021, published 2025).

For one data set, the system named is SH-SY5Y cells. Kind of data set: ROS production inhibiting ability, comparison of SS-31 and CMP3013. Type of data set: cell-based. Conditions: CCCP, rotenone, antimycin A or H2O2, SS-31 100 nM or 1 μM, CMP3013 10 nM or 100 nM. The procedure:
To compare effects of the two peptides on restoration of mitochondrial function, SS-31 and CMP3013 were tested for their ROS production inhibiting ability. The relative ROS levels in cells were compared by fluorescence intensity according to the method described in Experimental Example 6. SH-SY5Y cells were treated with four different mitochondrial damaging agents (200 μM CCCP, 50 μM rotenone, 10 μM antimycin A, or 50 μM H2O2) to induce production of ROS by mitochondrial damage.
The second method was performed as follows. First, 2×10^4 HeLa cells were seeded into a 96-well plate. After 24 hours, the cells were incubated with each peptide for 3 hours, and then staining with H2DCFDA (25 μM, 30 min) was performed. After performing washing twice with PBS, the cells in HBSS were used for analysis of ROS levels. The DCF signal of each well was obtained using a microplate reader (TECAN) at 37° C. (Ex/Em=485/535 nm).

Data set [1] is described as follows: Membrane potential restoring ability, JC-1, comparison of SS-31 and CMP3013. Type of data set: cell-based. Conditions: 1 mM H2O2; 10 or 30 nM. The procedure: For comparison of efficacy of the two peptides on restoration of mitochondrial function, SS-31 and CMP3013 were tested for their effect on membrane potential. The change in mitochondrial membrane potential was measured as a fluorescence ratio of JC-1 according to the method described in Experimental Example 8, and 1 mM of H2O2 was used as a mitochondrial damaging agent.

Data set [2] relates to HeLa cells. As to the kind of experiment: Co-localization with endosome, lysosome and cardiolipin (NAO) markers. The format is cell-based. The procedure: Next, to investigate whether mitochondrial damage affects the amount of peptide present in lysosomes, cardiolipin-specific targeting was investigated using NAO in the presence or absence of CCCP.
For microscopic observation, HeLa cells were cultured in glass-bottom dishes (SPL, 200350, Korea). The cells were then treated with peptides for 3 hours and stained with MitoTracker™ (Thermo Fisher Scientific, A1372, USA; 100 nM, 1 hr), nonyl acridine orange (NAO; Thermo Fisher Scientific, A1372; 100 nM, 1 hr), Hoechst 33342 ([…], 20 min), CellLight™ early endosomes-GFP (Thermo Fisher Scientific, C10586; […], 16 hr), and/or LysoTracker™ (Thermo Fisher Scientific, L7525; 50 nM, 30 min). The cells were then rinsed with PBS and HBSS was added thereto. Images of the stained cells were obtained using a microscope (Zeiss LSM 880 and ELYRA PS.1). To generate ultra-high resolution images, a structured illumination process was performed with ZEN Black software. Pearson r values were calculated by using ImageJ software.

Data set [3] in a line: Cytotoxicity by WST-1 assay. The format is cell-based. The settings on record: human, HeLa cells, one day, read-out: concentration at which 50% of the cultured cells were killed. The protocol: The cytotoxicity was measured by WST-1 assay. Specifically, 1×10^4 HeLa cells were seeded into 96-well plates. After 24 hours, the cells were treated with different concentrations of CMP3013 peptide indicated in FIG. 12 and incubated for one day. At the end of the incubation, the culture medium was replaced with new culture medium, treatment with EZ-Cytox (DoGEN, South Korea) at 10 μL was performed per well, and incubation was performed for 30 minutes. Then, the absorbance was measured at 450 nm. As a result, it was identified that the cytotoxicity of CMP3013 was only observed at micromolar or higher levels, and the concentration, at which 50% of the cultured cells were killed, reached 10 micromolar (FIG. 12).
Background: Formazan colour is commonly taken as a measure of viable cells.

Data set [4] is described as follows: Cardiolipin binding assay, NBD fluorescence with liposomes. The protocol: To further validate specificity of CMP3013 for cardiolipin-rich membranes identified in Example 9, two model systems mimicking the inner mitochondrial membrane were constructed using POPC (1-palmitoyl-2-oleoyl-sn-glycero-3-phosphocholine) and POPE (1-palmitoyl-2-oleoyl-sn-glycero-3-phosphoethanolamine), and cardiolipin binding assays were performed using an NBD-labeled CMP3013 monomer (NBD-CMP3013m), according to the method described in Experimental Example 12.
For the association experiments, 1 μM of NBD-labeled peptide dissolved in PBS was prepared in a black 96-well plate. Liposome (POPC:POPE=2:1 or POPC:POPE=2:1, containing 10% cardiolipin) was added to the peptide until the desired concentration was achieved. The mixture of NBD-peptide and liposome was mixed well through pipetting, and then fluorescence emission of the sample was monitored (λex=467 nm, λem=536 nm).
For the association experiments depending on cardiolipin ratio, 1 μM of NBD-labeled peptide or C6-NBD dissolved in PBS was prepared in a black 96-well plate. Liposome (POPC:POPE=2:1, containing 0 to 20% cardiolipin) was added to the peptide until the desired concentration (5 μM) was achieved. This mixture was mixed well through pipetting and fluorescence emission of the sample was monitored (λex=467 nm, λem=536 nm).
For dissociation experiments, 1 μM of NBD-labeled peptide dissolved in PBS was prepared in a black 96-well plate. Liposome (POPC:POPE=2:1 or POPC:POPE=2:1, containing 10% cardiolipin) was added to the peptide until the desired concentration (100 μM) was achieved. The mixture of NBD-peptide and liposome was mixed well through pipetting and fluorescence intensity of the mixture was measured (λex=467 nm, λem=536 nm). The unlabeled peptide (acetylated peptide) was then added to the mixture and mixed well through pipetting. Incubation in the dark was performed for 10 minutes, and then changes in fluorescence intensity were monitored. Peptide addition and fluorescence measurement were repeated until the concentration of acetylated peptide reached 40 μM.

For data set [5], the system named is HeLa cells. As to the kind of experiment: Preferential binding to CCCP-damaged mitochondria, confocal microscopy. Conditions: 100 nM 3 hours, 20 μM CCCP. The format is cell-based.
Method: To damage mitochondria, treatment with carbonyl cyanide m-chlorophenyl hydrazone (CCCP) at a concentration of 20 μM was performed for 30 minutes.
For microscopic observation, HeLa cells were cultured in glass-bottom dishes (SPL, 200350, Korea). The cells were then treated with peptides for 3 hours and stained with MitoTracker™ (Thermo Fisher Scientific, A1372, USA; 100 nM, 1 hr), nonyl acridine orange (NAO; Thermo Fisher Scientific, A1372; 100 nM, 1 hr), Hoechst 33342 (1 g/mL, 20 min), CellLight™ early endosomes-GFP (Thermo Fisher Scientific, C10586; 2 L/10,000 cells, 16 hr), and/or LysoTracker™ (Thermo Fisher Scientific, L7525; 50 nM, 30 min). The cells were then rinsed with PBS and HBSS was added thereto. Images of the stained cells were obtained using a microscope (Zeiss LSM 880 and ELYRA PS.1). To generate ultra-high resolution images, a structured illumination process was performed with ZEN Black software. Pearson r values were calculated by using ImageJ software.
For the next data set, the system named is C57BL/6 mice. Kind of data set: TAA-induced acute liver failure model.
In data set [6] the test system is HeLa cells. As to the kind of experiment: ATP levels in damaged cells pretreated with peptide. The format is cell-based. The settings on record: HeLa cells, 10 or 30 nM; 1 μM antimycin A or 1 mM H2O2. The protocol:
The relative ATP levels of cells were compared by fluorescence intensity according to the method described in Experimental Example 8, and mitochondrial damage was induced by treatment with two different mitochondrial damaging agents (1 μM of antimycin A or 1 mM of H2O2).
Cellular ATP levels were assessed using an ATP detection kit (Abcam, ab113849, USA) according to the manufacturer's instructions. Fluorescence luminescence was measured with a microplate reader (Promega, Glomax 96 microplate luminometer, USA).

Where [7] appears, read: 1 mg/kg intravenous x3, TAA 100 mg/kg Day 5, serum Day 6.
[8] abbreviates: mice, 1 mg/kg intravenous, Days 0, 2, 4.

“Also recorded” adds a separate entry of the source. Where a SMILES comes first, the peptide text is derived from it.

Method for C57BL/6 mice: Serum samples were obtained from blood collected from the heart on Day 6, and the samples were analyzed using a hematology analyzer (Hitachi Chemical Industries, Ltd., Japan). Blood AST (aspartate aminotransferase), ALT (alanine aminotransferase), and ALP (alkaline phosphatase) were measured and evaluated as liver injury markers.
Serum samples were obtained on the seventh day (Day 7) and analyzed using a hematology analyzer. Blood AST (aspartate aminotransferase), ALT (alanine aminotransferase), and ALP (alkaline phosphatase) were measured and evaluated as liver injury markers.

In the case of `CC(=O)N[C@@H](CC1CCCCC1)C(=O)N[C@H]1CSSC[C@@H](C(=O)N[C@@H](CCCNC(=N)N)C(N)=O)NC(=O)[C@H](CC2CCCCC2)NC(=O)[C@H](CCCNC(=N)N)NC(=O)[C@H](CCCNC(=N)N)NC(=O)[C@H](CC2CCCCC2)NC(=O)[C@H](CC(C)C)NC(=O)[C@H](CCCNC(=N)N)NC(=O)[C@@H](NC(=O)[C@H](CC2CCCCC2)NC(C)=O)CSSC[C@@H](C(=O)N[C@@H](CCCNC(=N)N)C(N)=O)NC(=O)[C@H](CC2CCCCC2)NC(=O)[C@H](CCCNC(=N)N)NC(=O)[C@H](CCCNC(=N)N)NC(=O)[C@H](CC2CCCCC2)NC(=O)[C@H](CC(C)C)NC(=O)[C@H](CCCNC(=N)N)NC1=O` [CMP3013] (HELM PEPTIDE1{[ac].[Cha].C.R.L.[Cha].R.R.[Cha].C.R.[am]}|PEPTIDE2{[ac].[Cha].C.R.L.[Cha].R.R.[Cha].C.R.[am]}$PEPTIDE1,PEPTIDE2,3:R3-10:R3|PEPTIDE1,PEPTIDE2,10:R3-3:R3$$$V2.0), the “ROS production inhibiting ability” value in the data set with SH-SY5Y cells was “equivalent or better ROS production inhibiting ability than SS-31”. Further, in data set [1], the “mitochondrial membrane potential (Δψm), JC-1 ratio” value is “increased mitochondrial membrane potential”. Besides, the “proportion of peptide present in lysosomes (Pearson r, CMP3013-Lysotracker)” value in the data set with HeLa cells [2] (absence of CCCP) was 0.30. Further, in the data set with HeLa cells [2] (not treated with CCCP), the “co-localization of CMP3013 with cardiolipin (NAO), Pearson r” value turned out to be 0.08. Further, the “proportion of peptide present in lysosomes (Pearson r, CMP3013-Lysotracker)” value with HeLa cells [2] (presence of CCCP) was 0.29. Besides, the “co-localization of CMP3013 with cardiolipin (NAO), Pearson r” value with HeLa cells [2] (treated with CCCP) was found to be 0.43. Moreover, the CC50 at 24 h in data set [3] was found to be 10 µM. Further, in data set [4], the “stronger binding capacity for cardiolipin than SS-31” value is given as “approximately 100 fold”. Besides, the “targeting of damaged mitochondria” value in the data set with HeLa cells [5] is on record as “moves into damaged mitochondria; also recorded: preferentially target damaged mitochondria”. In the data set on C57BL/6 mice (1 mg/kg intravenous x3), the “ALP decrease as compared with the TAA-administered group” value is 19% and the “AST reduction as compared with the group having received TAA alone” value is 35%. For the same compound, in the data set with C57BL/6 mice (setting [7]), the “blood ALP” value was 462.00±81.10 U/L, the “blood ALT” value is on record as 332.60±86.31 U/L and the “blood AST” value stood at 316.40±52.65 U/L. In the data set on C57BL/6 mice (intraperitoneal 1, 5, or 10 mg/kg), the “dose dependence of AST and ALT decrease” value is recorded as “dose-dependent manner”. Also, in the data set on C57BL/6 mice (intraperitoneal x3, TAA 100 mg/kg Day 5, serum Day 7), the “blood AST, ALT, and ALP” value is reported as “all significantly reduced”. In addition, in the data set with C57BL/6 mice (setting [8]), the adverse events result is reported as “no adverse events occurred” and the mortality result is listed as “no animals died”. Further, the weight loss entry with C57BL/6 mice (mice, TAA and/or CMP3013) is “no weight loss was observed”. Further, the “ATP production promoting ability” value in the data set on HeLa cells [6] is recorded as “promoting resumption of ATP production”.
